In US6831075B2, “Heterocyclic substituted pyrazolones” (Cephalon, Inc., priority 1999, dated 2004):

What was measured:
Type in all cases: biochemical
baculoviral GST-MLK2KDLZ = target: T1, baculoviral GST-MLK2KDLZ (Homo sapiens, UniProt Q02779); experiment: Mixed Lineage Kinase-2 inhibition assay (Millipore Multiscreen plate, 32P); details: 1 uM compound, 100 μM ATP
T1 construct: 3 μg/ml of baculoviral GST-MLK2KDLZ; GST (N); host or cells: baculovirus expression system
Method: Inhibition of Mixed Lineage Kinase-2 Activity
(§1) Assays were performed using the Millipore Multiscreen plate format as described for MLK1. Each 50-μl assay mixture contained 20 mM Hepes, pH 7, 1 mM EGTA, 10 mM MgCl2, 1 mM DTT, 25 mM β-glycerophosphate, 100 μM ATP, 0.25 μCi [γ-^32P]ATP, 0.1% BSA, 500 μg/ml myelin basic protein (UBI #13-104), 2% DMSO, various concentrations of test compound, and 3 μg/ml of baculoviral GST-MLK2KDLZ. Samples were incubated for 15 min. at 37° C. The reaction was stopped by adding ice cold 50% TCA and the proteins were allowed to precipitate for 30 min at 4° C. The plates were then washed with ice cold 25% TCA Supermix scintillation cocktail was added, and the plates were allowed to equilibrate for 1-2 hours prior to counting.

baculoviral GST-MLK3KD = target: T2, baculoviral GST-MLK3KD (Homo sapiens, UniProt Q16584); experiment: Mixed Lineage Kinase-3 inhibition assay (Millipore Multiscreen plate, 32P); details: 1 uM compound, 100 μM ATP
T2 construct: 2 μg/ml of baculoviral GST-MLK3KD; GST (N); host or cells: baculovirus expression system
Method: Inhibition of Mixed Lineage Kinase-3 Activity
as §1, with “MLK1. Briefly, each” for “MLK1. Each”, “and 2” for “and 3”, “baculoviral GST-MLK3KD.” for “baculoviral GST-MLK2KDLZ.”, “15 min” for “15 min.”, “25% TCA.” for “25% TCA”

[1] = target: T3, recombinant human baculovirus-expressed VEGFR1 cytoplasmic domain (Homo sapiens, UniProt P17948); experiment: VEGFR1 kinase inhibition assay (ELISA-based, time-resolved fluorescence); details: 1 uM compound, 30 μM ATP
T3 construct: recombinant human baculovirus-expressed VEGFR1 cytoplasmic domain; host or cells: baculovirus expression system
T3 sequence (P17948 781-1338 limits assumed): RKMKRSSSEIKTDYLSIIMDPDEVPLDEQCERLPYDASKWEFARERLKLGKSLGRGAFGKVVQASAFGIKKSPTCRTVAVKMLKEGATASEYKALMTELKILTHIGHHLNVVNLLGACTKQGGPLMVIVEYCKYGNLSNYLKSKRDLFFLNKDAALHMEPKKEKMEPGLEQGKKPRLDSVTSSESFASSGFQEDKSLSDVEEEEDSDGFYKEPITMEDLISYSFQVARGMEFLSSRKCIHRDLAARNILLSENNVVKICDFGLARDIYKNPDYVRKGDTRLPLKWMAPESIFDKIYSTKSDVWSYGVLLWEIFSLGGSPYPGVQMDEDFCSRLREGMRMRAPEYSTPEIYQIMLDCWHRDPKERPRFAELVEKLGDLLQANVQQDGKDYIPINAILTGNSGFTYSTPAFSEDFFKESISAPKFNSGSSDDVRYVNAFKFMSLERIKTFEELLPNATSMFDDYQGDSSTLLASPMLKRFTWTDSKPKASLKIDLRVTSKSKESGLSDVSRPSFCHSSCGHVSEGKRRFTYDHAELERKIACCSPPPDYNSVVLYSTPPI
Method: Inhibition of Vascular Endothelial Growth Factor Receptor-1 Kinase Activity
The VEGFR1 kinase activity assay utilizes an ELISA-based format in a 96-well FluoroNUNC Maxisorp plate with a time-resolved fluorescence readout. The plate was coated with 100 μl/well of substrate solution (recombinant human PLC-γ/GST) at a concentration of 40 μg/ml in Tris buffered saline (TBS). The VEGFR1 activity was assayed in 100-μl assay micture containing 50 mM HEPES (pH 7.4), 30 μM ATP, 10 mM MnCl2, 0.1% BSA, 2% DMSO, and 300 ng/ml prephosphorylated recombinant human baculovirus-expressed VEGFR1 cytoplasmic domain. Compounds were screened for inhibition of the VEGFR1 kinase activity at a concentration of 1 μM. The kinase reaction was allowed to proceed at 37° C. for 15 minutes. The detection antibody, europium-labeled anti-phosphotyrosine antibody (Wallac #CR04-100), was added at 1:5000 dilution in block buffer (3% BSA in TBST). After a 1-hour incubation at 37° C., 100 μl of enhancement solution (Wallac #1244-105) was added and the plate was gently agitated. After 5 min, the fluorescence of the resulting solution was measured using the BMG Fluostar (Model # 403).

[2] = target: T4, recombinant human baculovirus-expressed FGFR1 cytoplasmic domain (Homo sapiens, UniProt P11362); experiment: FGFR1 kinase inhibition assay (ELISA-based, time-resolved fluorescence); details: 1 uM compound; 20 μM ATP
T4 construct: recombinant human baculovirus-expressed FGFR1 cytoplasmic domain; host or cells: baculovirus expression system
Method: Inhibition of Fibroblast Growth Factor Receptor-1 (FGFR1) Kinase Activity
The FGFR1 kinase activity was measured using an ELISA-based format in a 96-well FluoroNUNC Maxisorp plate with a time-resolved fluorescence readout as described for trkA kinase. The plate was coated with 100 μl/well of substrate solution (recombinant human PLC-γ/GST) at a concentration of 10 μg/ml in Tris buffered saline (TBS). The FDGFR1 activity was assayed in 100-μl assay micture containing 50 mM HEPES (pH 7.4), 20 μM ATP, 10 mM MnCl2, 0.1% BSA, 2% DMSO, and 15 ng/ml recombinant human baculovirus-expressed FGFR1 cytoplasmic domain (prephosphorylated prior to use). Compounds were screened for inhibition of the FGFR1 kinase activity at a conentration of 1 μM. The kinase reaction was allowed to proceed at 37° C. for 15 minutes. The detection antibody, europium-labeled anti-phosphotyrosine antibody (Wallace #CR04-100), was added at 1:5000 dilution in block buffer (3% BSA in TBST). After a 1-hour incubation at 37° C., 100 μl of enhancement solution (Wallac #1244-105) and the plate was gently agitated. After 5 min, the fluorescence of the resulting solutions measured using the BMG Fluostar (Model # 403).

T2 sequence (Q16584 117-379 limits assumed): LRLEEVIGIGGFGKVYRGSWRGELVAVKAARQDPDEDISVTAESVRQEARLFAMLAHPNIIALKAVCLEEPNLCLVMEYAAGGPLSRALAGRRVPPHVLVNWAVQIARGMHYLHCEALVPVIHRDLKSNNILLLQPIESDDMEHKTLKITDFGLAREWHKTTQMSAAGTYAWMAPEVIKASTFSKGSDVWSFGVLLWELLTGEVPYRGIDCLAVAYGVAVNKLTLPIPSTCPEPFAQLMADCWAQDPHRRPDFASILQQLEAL
T4 sequence (P11362 398-822 limits assumed): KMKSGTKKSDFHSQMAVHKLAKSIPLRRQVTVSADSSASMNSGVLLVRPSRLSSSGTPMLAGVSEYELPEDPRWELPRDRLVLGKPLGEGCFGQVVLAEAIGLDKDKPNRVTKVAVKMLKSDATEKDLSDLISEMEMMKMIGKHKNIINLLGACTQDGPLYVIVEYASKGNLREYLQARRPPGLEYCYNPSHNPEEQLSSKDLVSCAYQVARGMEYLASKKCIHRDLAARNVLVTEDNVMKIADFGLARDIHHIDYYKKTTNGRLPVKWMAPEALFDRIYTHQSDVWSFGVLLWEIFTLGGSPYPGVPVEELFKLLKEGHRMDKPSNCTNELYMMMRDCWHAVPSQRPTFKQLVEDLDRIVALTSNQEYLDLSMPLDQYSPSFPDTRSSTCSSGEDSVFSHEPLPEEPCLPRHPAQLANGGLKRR
T1 sequence (Q02779 98-440 limits assumed): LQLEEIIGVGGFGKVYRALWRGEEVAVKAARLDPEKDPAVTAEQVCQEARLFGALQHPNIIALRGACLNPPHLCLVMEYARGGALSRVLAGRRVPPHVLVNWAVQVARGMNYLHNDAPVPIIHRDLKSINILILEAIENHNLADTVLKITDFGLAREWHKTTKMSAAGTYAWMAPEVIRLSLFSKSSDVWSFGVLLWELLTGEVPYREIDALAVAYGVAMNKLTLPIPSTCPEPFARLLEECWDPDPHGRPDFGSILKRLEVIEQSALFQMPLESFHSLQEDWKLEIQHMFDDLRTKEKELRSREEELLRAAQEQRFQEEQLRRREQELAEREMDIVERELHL

SMILES | inhibition at 1 µM (baculoviral GST-MLK2KDLZ; read-out: MLK-2 Kinase % inhibition @ 1 uM) | inhibition at 1 µM (baculoviral GST-MLK3KD; read-out: MLK-3 Kinase % inhibition @ 1 uM) | inhibition at 1 µM ([1]; read-out: VEGFR-1 kinase % inhibition @ 1 uM) | inhibition at 1 µM [2] | MLK-2 Kinase % inhibition @ 1 uM (baculoviral GST-MLK2KDLZ) | MLK-3 Kinase % inhibition @ 1 uM (baculoviral GST-MLK3KD) | VEGFR-1 kinase % inhibition @ 1 uM [1] | FGFR1 % inhibition @ 1 uM [2]
O=C1NN=C(c2cccs2)C1=Cc1c[nH]c2ccccc12 [Compound 38, 4-(indol-3-ylmethylene)-3-(2-thienyl)-2-pyrazolin-5-one] | 2% | 38% | 28% | 28% | – | – | – | –
Cc1cc(C)c(C=C2C(=O)NN=C2c2ccoc2)[nH]1 [Compound 1] | – | – | – | – | 7% | 28% | 35% | 6%
O=C1NN=C(c2ccoc2)C1=Cc1c[nH]c2ccc(F)cc12 [Compound 19] | – | – | – | – | −5% | 11% | 30% | 23%
Cn1cc(C=C2C(=O)NN=C2c2cccs2)c2ccccc21 [Compound 63] | – | – | – | – | 1% | 78% | 40% | 38%
O=C1NN=C(c2ccoc2)C1=Cc1cn(Cc2ccccc2)c2ccccc12 [Compound 68] | – | – | – | – | 16% | 20% | 11% | 27%
Cc1c(I)[nH]c(C=C2C(=O)NN=C2c2ccoc2)c1I [Compound 6] | – | – | – | – | 6% | 3% | 14% | 20%
O=C1NN=C(c2ccoc2)C1=Cc1c[nH]c2cccc(OCc3ccccc3)c12 [Compound 18] | – | – | – | – | −2% | 47% | 9% | 22%
COc1ccc2[nH]cc(C=C3C(=O)NN=C3c3ccoc3)c2c1 [Compound 11] | – | – | – | – | 7% | 31% | 23% | 24%
O=C1NN=C(c2ccco2)C1=Cc1ncc[nH]1 [Compound 54] | – | – | – | – | −48% | 0% | 5% | 45%
CCc1c(C=C2C(=O)NN=C2c2ccoc2)[nH]c(C(=O)OCc2ccccc2)c1C [Compound 5] | – | – | – | – | 9% | −9% | 10% | −2%
Cc1ccc2c(C=C3C(=O)NN=C3c3ccn(C)c3)c[nH]c2c1 [Compound 33] | – | – | – | – | −13% | 28% | 36% | 27%
